Laboratory results published in patent publication US9980943B2, “Methods of treating muscular dystrophy” (BOARD OF REGENTS OF THE NEVADA SYSTEM OF HIGHER EDUCATION, …, priority 2013, dated 2018).
Read-outs that look alike come from different tables or passages of the source.

Columns and labels:
Format in all cases: cell-based, mouse
[1] = tested on: α7 integrin (LacZ reporter in α7βgal+/− myoblasts); test: Myoblast α7+/LacZ integrin FDG assay (Burkin assay in myoblasts, 96-well); settings: α7+/LacZ myoblasts, 96-well; for fold induction at 0.5 µM / fold induction at 1 µM / fold induction at 5 µM / fold induction at 10 µM / fold induction at 20 µM / fold induction at 40 µM: Mus musculus, Myoblast, 48 h, read-out: Burkin Assay in Myoblasts, signal relative to DMSO
[2] = tested on: α7 integrin (LacZ reporter in α7+/LacZ myotubes); test: Myotube α7 integrin FDG assay (Burkin assay in myotubes, 96-well); settings: myotubes; for fold induction at 0.5 µM / fold induction at 1 µM / fold induction at 5 µM / fold induction at 10 µM / fold induction at 20 µM / fold induction at 40 µM: Mus musculus, Myotube, read-out: Burkin Assay in Myotubes, α7 integrin LacZ reporter signal relative to DMSO
[3] = tested on: β-galactosidase in CMV-LacZ C2C12 myotubes; test: CMV-LacZ secondary screen in C2C12 myotubes (β-Gal stabilizing assay); settings: C2C12 CMV-LacZ myotubes, fold relative to DMSO; for fold induction at 5 µM / fold induction at 10 µM / fold induction at 20 µM / fold induction at 40 µM: Mus musculus
Outline: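 Dose-response runs at 0.5–40 μM (0.5, 1, 5, 10, 20, 40 μM; N=2 per point) used a clonal C2C12 line carrying CMV-LacZ. Cells were assayed as myoblasts or as differentiated myotubes, and β-galactosidase levels were read with the FDG fluorogenic substrate.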

Structure (SMILES) | fold induction at 0.5 µM ([1]; 0.5 uM) | fold induction at 1 µM ([1]; 1 uM) | fold induction at 5 µM ([1]; 5 uM) | fold induction at 10 µM ([1]; 10 uM) | fold induction at 20 µM ([1]; 20 uM) | fold induction at 40 µM ([1]; 40 uM) | fold induction at 0.5 µM ([2]; 0.5 uM) | fold induction at 1 µM ([2]; 1 uM) | fold induction at 5 µM ([2]; 5 uM) | fold induction at 10 µM ([2]; 10 uM) | fold induction at 20 µM ([2]; 20 uM) | fold induction at 40 µM ([2]; 40 uM) | Burkin Assay in Myoblasts, signal relative to DMSO ([1]; 0.5 uM) | Burkin Assay in Myoblasts, signal relative to DMSO ([1]; 1 uM) | Burkin Assay in Myoblasts, signal relative to DMSO ([1]; 5 uM) | Burkin Assay in Myoblasts, signal relative to DMSO ([1]; 10 uM) | Burkin Assay in Myoblasts, signal relative to DMSO ([1]; 20 uM) | Burkin Assay in Myoblasts, signal relative to DMSO ([1]; 40 uM) | Burkin Assay in Myotubes, α7 integrin LacZ reporter signal relative to DMSO ([2]; 0.5 uM) | Burkin Assay in Myotubes, α7 integrin LacZ reporter signal relative to DMSO ([2]; 1 uM) | other results
COc1cc(C)c(NC(=O)COc2ccc3c(c2)OCO3)cc1C [MLS001223425-01] | 1.06 | 1.08 | 1.06 | 1.15 | 1.22 | 1.13 | 1.08 | 1.22 | 0.914 | 1.38 | 1.14 | 1.18 |  |  |  |  |  |  |  |  | fold induction at 5 µM ([3]; C2C12, read-out: CMV-LACZ in Myotubes, signal relative to DMSO, 5 uM): 0.956; fold induction at 10 µM ([3]; C2C12, read-out: CMV-LACZ in Myotubes, signal relative to DMSO, 10 uM): 1.04; fold induction at 20 µM ([3]; C2C12, read-out: CMV-LACZ in Myotubes, signal relative to DMSO, 20 uM): 0.979; fold induction at 40 µM ([3]; C2C12, read-out: CMV-LACZ in Myotubes, signal relative to DMSO, 40 uM): 1.01
O=c1nc(C2CCN(S(=O)(=O)c3ccc4c(c3)OCCO4)CC2)nc2n(Cc3c(F)cccc3Cl)[nH]nc1-2 [MLS001223482-01] | 1.06 | 1.09 | 1.01 | 1.02 | 1.29 | 0.98 | 1.06 | 1.15 | 1.27 | 1.53 | 1.13 | 0.967 |  |  |  |  |  |  |  |  | fold induction at 5 µM ([3]; 5 uM, read-out: CMV-LACZ in Myotubes, signal relative to DMSO): 0.907; fold induction at 10 µM ([3]; 10 uM, read-out: CMV-LACZ in Myotubes, signal relative to DMSO): 0.793; fold induction at 20 µM ([3]; 20 uM, read-out: CMV-LACZ in Myotubes, signal relative to DMSO): 0.858; fold induction at 40 µM ([3]; 40 uM, read-out: CMV-LACZ in Myotubes, signal relative to DMSO): 0.809
CC(C)(C)n1cnc2cc(NC(=O)c3ccco3)ccc21 [MLS001223567-01] |  |  |  |  |  |  |  |  |  |  |  |  | 1.044 | 1.082 | 0.9608 | 0.9203 | 0.8579 | 0.864 | 0.9533 | 0.9978 | Burkin Assay in Myotubes, α7 integrin LacZ reporter signal relative to DMSO ([2]; 5 uM): 0.8636; Burkin Assay in Myotubes, α7 integrin LacZ reporter signal relative to DMSO ([2]; 10 uM): 0.924; Burkin Assay in Myotubes, α7 integrin LacZ reporter signal relative to DMSO ([2]; 20 uM): 0.9991; Burkin Assay in Myotubes, α7 integrin LacZ reporter signal relative to DMSO ([2]; 40 uM): 0.9931; CMV-LACZ in Myotubes, signal relative to DMSO ([3]; 5 uM): 1.002; CMV-LACZ in Myotubes, signal relative to DMSO ([3]; 10 uM): 0.8931; CMV-LACZ in Myotubes, signal relative to DMSO ([3]; 20 uM): 1.241; CMV-LACZ in Myotubes, signal relative to DMSO ([3]; 40 uM): 1.012
CC(=O)Nc1ccc(N(C(=O)c2cnccn2)C(C(=O)NC2CCCCC2)c2ccc(F)cc2)cc1 (stereo not shown) [MLS001225507-01] |  |  |  |  |  |  |  |  |  |  |  |  | 1.0374 | 0.9444 | 0.9036 | 0.8292 | 0.8685 | 0.888 | 0.9321 | 0.6741 | Burkin Assay in Myotubes, α7 integrin LacZ reporter signal relative to DMSO ([2]; 5 uM): 1.013; Burkin Assay in Myotubes, α7 integrin LacZ reporter signal relative to DMSO ([2]; 10 uM): 1.002; Burkin Assay in Myotubes, α7 integrin LacZ reporter signal relative to DMSO ([2]; 20 uM): 1.175; Burkin Assay in Myotubes, α7 integrin LacZ reporter signal relative to DMSO ([2]; 40 uM): 0.9539; CMV-LACZ in Myotubes, signal relative to DMSO ([3]; 5 uM): 1.04; CMV-LACZ in Myotubes, signal relative to DMSO ([3]; 10 uM): 0.994; CMV-LACZ in Myotubes, signal relative to DMSO ([3]; 20 uM): 0.8655; CMV-LACZ in Myotubes, signal relative to DMSO ([3]; 40 uM): 0.8805
